“And” between values parts separate entries of the source, which are not always exact repeats. Identical values can stand only once. Like-named read-outs stand apart in the source and are kept apart here. Values belong to the molecule of their own block, whether it stands above or below them.
How the values were obtained:
human MDR1 = molecular target: T1, human MDR1 (Homo sapiens, UniProt P08183); assay: P-glycoprotein substrate test, human MDR1 transfected MDCKII cells (M-MDR1); format: in vitro ADME; conditions: in vitro; M-MDR1 and L-MDR1 cells
T1 construct: host or cells: MDCKII (canine kidney epithelial cells), M-MDR1
T1 sequence (P08183 whole entry): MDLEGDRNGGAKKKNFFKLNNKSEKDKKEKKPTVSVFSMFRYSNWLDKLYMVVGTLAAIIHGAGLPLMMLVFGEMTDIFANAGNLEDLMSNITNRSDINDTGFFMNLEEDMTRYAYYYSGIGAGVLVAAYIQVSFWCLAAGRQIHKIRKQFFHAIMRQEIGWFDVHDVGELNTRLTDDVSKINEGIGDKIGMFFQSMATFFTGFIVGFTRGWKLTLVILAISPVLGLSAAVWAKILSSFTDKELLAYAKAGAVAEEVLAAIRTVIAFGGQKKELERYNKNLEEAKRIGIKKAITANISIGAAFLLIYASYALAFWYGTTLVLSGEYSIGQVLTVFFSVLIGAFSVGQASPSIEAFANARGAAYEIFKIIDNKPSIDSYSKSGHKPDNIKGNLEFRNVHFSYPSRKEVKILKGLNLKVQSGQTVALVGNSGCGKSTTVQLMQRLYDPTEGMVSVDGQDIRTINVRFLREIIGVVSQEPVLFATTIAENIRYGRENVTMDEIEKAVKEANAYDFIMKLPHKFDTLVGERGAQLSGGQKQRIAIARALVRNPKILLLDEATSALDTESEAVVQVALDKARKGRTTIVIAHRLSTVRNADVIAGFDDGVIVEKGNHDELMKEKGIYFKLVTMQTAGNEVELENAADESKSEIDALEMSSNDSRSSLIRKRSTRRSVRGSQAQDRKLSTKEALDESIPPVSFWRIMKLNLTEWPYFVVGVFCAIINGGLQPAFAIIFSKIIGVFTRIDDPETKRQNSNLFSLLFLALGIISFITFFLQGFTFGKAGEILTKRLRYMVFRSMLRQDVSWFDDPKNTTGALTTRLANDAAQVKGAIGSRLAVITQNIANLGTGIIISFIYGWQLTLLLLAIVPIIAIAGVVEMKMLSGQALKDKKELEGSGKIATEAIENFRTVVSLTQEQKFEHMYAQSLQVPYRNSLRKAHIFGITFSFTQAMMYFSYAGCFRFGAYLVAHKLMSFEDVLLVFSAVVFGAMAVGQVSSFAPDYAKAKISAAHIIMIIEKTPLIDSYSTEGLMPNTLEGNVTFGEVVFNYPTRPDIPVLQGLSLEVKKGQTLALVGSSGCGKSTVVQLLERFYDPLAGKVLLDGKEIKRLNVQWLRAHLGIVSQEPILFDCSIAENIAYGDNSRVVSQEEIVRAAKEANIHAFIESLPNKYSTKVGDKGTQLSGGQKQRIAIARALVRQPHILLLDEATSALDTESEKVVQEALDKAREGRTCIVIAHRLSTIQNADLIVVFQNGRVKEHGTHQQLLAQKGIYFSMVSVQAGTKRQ
Text: (§1) Wild type and transfected MDCKII (ATCC #CCL34, cocker spaniel kidney epithelial cell line) and the LLCPK (ATCC #CL-101, porcine kidney epithelial cell line) cell lines were obtained from Dr A. Schinkel (The Netherlands Cancer Institute, Amsterdam, The Netherlands) and used under license agreement. […] The non-transfected wild-type cell lines MDCKII or LLCPK were used as controls. […] More assay details were recently published.

[1] = tested on: Type 2 diabetes animal models; design: method as in PMID 17073841, PMID 17981667; conditions: dose-dependent; cited from earlier work
primary rat hepatocytes = assay: Uptake by primary rat hepatocytes; format: in vitro ADME; conditions: data not shown
[2] = Clinical pharmacokinetics of carmegliptin (plasma and urine) alone or with verapamil; format: in vivo, human; conditions: for AUC(0-inf) / Cmax / half-life / AUC(0-t) / Vd/F / Tmax: plasma; for Vd/F: read-out: Vz/F; for Tmax: median (range)
Method: All urine produced by subjects during each sampling interval was collected in pre-weighed polyethylene containers. The urine was refrigerated (2–8°C) between collections and, at the end of each collection interval, an aliquot of ∼10 mL was transferred to polyethylene tubes.
Plasma and urine samples were analyzed for carmegliptin by high-performance liquid chromatography combined with tandem mass spectrometric detection at F. Hoffmann-La Roche Ltd, Basel, Switzerland. The lower limit of quantification was 1 ng/mL for plasma and 20 ng/mL for urine.

[3] = Clinical safety and tolerability assessments; format: in vivo, human
Text: Safety assessments during the treatment period included all adverse events, clinical laboratory safety tests (days 3, 9, and 14), urine chemistry (days 1, 10, and 15), 24-h ECGs (days 1, 10, and 15), and Lead-2 telemetry (days 1, 10, and 15). Subjects were resident in the unit on four occasions (day – 1 to day 3, day 6 to day 8 [morning], day 9 [evening] to day 12, and day 14 to day 17). Ambulatory visits were also required on day 8 (evening) and day 9 (morning) for pharmacokinetic sampling.
All adverse events (AEs) occurring during the clinical study were recorded and their intensity was assessed by investigators as mild, moderate, or severe. AEs occurring before first dosing were reported as baseline signs and symptoms. […] Investigators also assessed each AE’s relationship to treatment as unrelated, remote, possible, or probable. Factors used to determine the relationship to treatment included the temporal association of the AE with administration of study drug, the known pattern of response to the suspected drug, and re-appearance of the AE on re-challenge with the drug.
Vital signs, systolic and diastolic blood pressure, heart rate, and oral temperature were assessed after the subject had been in a supine position for at least 5 min. Vital signs were recorded at the following time-points: Screening visit, treatment period (days 1, 10, and 15 pre-dose and at 2, 6, and 12 h post-dose, and pre-dose only on days 3, 7, and 11–14), and at the follow-up visit. In addition, 12 lead-ECGs were recorded at screening visit day – 1, on days 1, 10, and 15 (pre-dose and at 2, 6, and 12 h post-dose) and at the follow-up visit. Heart rate, QT, QTcB, PR, and QRS were captured directly from the ECG machine. QTcF and RR were derived. T-wave morphology, the occurrence of U-waves, and any other observed abnormalities were additionally recorded. […] The CRF captured whether the results were normal or abnormal.

P-glycoprotein (Pgp) = molecular target: T2, P-glycoprotein (Pgp) (Homo sapiens, UniProt P08183); assay: Pgp inhibition potential with digoxin as model substrate (M-MDR1 cells); format: in vitro ADME; conditions: in vitro
T2 construct: host or cells: transfected MDCKII or LLCPK cells
T2 sequence (P08183 whole entry): as above
Text: The non-transfected wild-type cell lines MDCKII or LLCPK were used as controls. […] More assay details were recently published.

CHO cells = assay: Uptake in CHO cells; format: in vitro ADME; conditions: data not shown
mouse mdr1a = molecular target: T3, mouse mdr1a (Mus musculus, UniProt P21447); assay: P-glycoprotein substrate test, mouse mdr1a transfected LLCPK cells (L-Mdr1a); format: in vitro ADME; conditions: in vitro
T3 construct: host or cells: LLCPK (porcine kidney epithelial cells), L-Mdr1a
T3 sequence (P21447 whole entry): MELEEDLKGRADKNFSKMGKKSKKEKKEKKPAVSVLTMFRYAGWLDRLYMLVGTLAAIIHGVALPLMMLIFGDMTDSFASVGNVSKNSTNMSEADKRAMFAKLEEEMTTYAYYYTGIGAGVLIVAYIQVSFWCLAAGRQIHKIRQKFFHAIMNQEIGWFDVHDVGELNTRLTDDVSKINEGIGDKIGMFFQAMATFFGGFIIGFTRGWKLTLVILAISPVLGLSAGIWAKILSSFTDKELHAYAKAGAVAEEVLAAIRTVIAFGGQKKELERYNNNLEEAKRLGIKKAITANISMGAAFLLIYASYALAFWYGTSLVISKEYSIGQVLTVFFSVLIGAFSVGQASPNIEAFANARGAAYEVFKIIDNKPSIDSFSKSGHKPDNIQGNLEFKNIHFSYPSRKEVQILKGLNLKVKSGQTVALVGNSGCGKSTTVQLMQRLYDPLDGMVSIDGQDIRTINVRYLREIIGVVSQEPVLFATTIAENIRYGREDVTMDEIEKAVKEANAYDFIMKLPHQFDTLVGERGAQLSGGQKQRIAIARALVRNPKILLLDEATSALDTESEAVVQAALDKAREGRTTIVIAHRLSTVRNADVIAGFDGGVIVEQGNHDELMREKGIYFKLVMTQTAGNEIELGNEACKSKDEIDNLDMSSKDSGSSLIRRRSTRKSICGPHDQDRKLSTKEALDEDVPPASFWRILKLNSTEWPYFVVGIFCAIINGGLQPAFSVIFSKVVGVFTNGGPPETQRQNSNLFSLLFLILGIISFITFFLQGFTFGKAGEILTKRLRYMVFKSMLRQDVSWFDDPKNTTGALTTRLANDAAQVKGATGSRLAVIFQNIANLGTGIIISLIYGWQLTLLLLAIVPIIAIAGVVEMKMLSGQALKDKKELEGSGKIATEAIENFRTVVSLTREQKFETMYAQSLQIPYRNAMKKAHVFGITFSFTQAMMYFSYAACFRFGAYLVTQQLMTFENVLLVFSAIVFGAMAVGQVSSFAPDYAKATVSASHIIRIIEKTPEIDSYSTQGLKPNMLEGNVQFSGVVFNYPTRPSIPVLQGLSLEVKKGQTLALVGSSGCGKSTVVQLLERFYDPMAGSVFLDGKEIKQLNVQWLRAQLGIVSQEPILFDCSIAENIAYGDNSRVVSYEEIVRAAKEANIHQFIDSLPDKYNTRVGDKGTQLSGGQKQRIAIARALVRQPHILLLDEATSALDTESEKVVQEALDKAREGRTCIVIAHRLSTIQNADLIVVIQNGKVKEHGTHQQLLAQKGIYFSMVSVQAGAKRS
Text: as §1

[4] = In vitro cell permeability; format: in vitro ADME
Text: as §1

[5] = tested on: primary human hepatocytes; assay: Uptake by primary human hepatocytes; format: in vitro ADME; conditions: data not shown
[6] = Clinical pharmacokinetics of verapamil and norverapamil alone or with carmegliptin; conditions: male, human, plasma, oral, 80 mg
Pgp = conditions: in vitro; cited from earlier work
[7] = acute verapamil (day 10) vs day 1
[8] = carmegliptin 150 mg + chronic verapamil 80 mg t.i.d., day 15, geometric mean (CV%)
[9] = chronic verapamil (day 15) vs day 1
[10] = male, human, oral, 150 mg, carmegliptin 150 mg single dose alone, day 1, geometric mean (CV%)
[11] = male, human, oral, carmegliptin 150 mg + acute verapamil 80 mg t.i.d., day 10, geometric mean (CV%)
[12] = male, human, oral, carmegliptin 150 mg + chronic verapamil 80 mg t.i.d., day 15, geometric mean (CV%)

substrate of human MDR1 / human Pgp (human MDR1): good substrate | uptake process (primary rat hepatocytes): mainly passive diffusion | AUCinf higher than carmegliptin alone [2, 7]: 19% | Cmax higher than carmegliptin alone [2, 7]: 48% | maximum plasma levels attained earlier than carmegliptin alone [2, 7]: ~2.25 h | Fe (fraction of dose excreted unchanged in urine over 48 h) ([2]; carmegliptin 150 mg + acute verapamil 80 mg t.i.d., day 10, geometric mean (CV%)): 33% and 33.1% and 33.1 (17.7) % | CLr (renal clearance) [2, 8]: 13.6 (14.7) L/h | Fe (fraction of dose excreted unchanged in urine over 48 h) [2, 8]: 38.7% and 38.7 (18.1) % | Fe (fraction of dose excreted unchanged in urine over 48 h) ([2]; carmegliptin 150 mg single dose alone, day 1, geometric mean (CV%)): 26% and 26.0 (22.7) % | AUCinf higher than carmegliptin alone [2, 9]: 29% | Cmax higher than carmegliptin alone [2, 9]: 53% | maximum plasma levels attained earlier than carmegliptin alone [2, 9]: ~1.5 h | peak concentrations occurred earlier ([2]; co-administered with verapamil, acute and chronic): 1.5 to 2.25 h | CL renal ([2]; male, human, plasma and urine, oral, 150 mg, read-out: CLr (renal clearance) (converted)): 215 mL/min | AUC(0-inf) [2, 10]: 3570 ng·h/mL | Cmax [2, 10]: 342 ng/mL | half-life [2, 10]: 22.4 h | AUC(0-t) ([2]; male, human, oral, 150 mg, carmegliptin 150 mg single dose alone, day 1, geometric mean (CV%), read-out: AUC0–24): 2410 ng·h/mL | AUC(0-t) ([2]; male, human, oral, 150 mg, carmegliptin 150 mg single dose alone, day 1, geometric mean (CV%), read-out: AUClast): 3010 ng·h/mL | Vd/F [2, 10]: 1360 L | Tmax ([2]; male, human, oral, 150 mg, carmegliptin 150 mg single dose alone, day 1): 3 h | AUC(0-inf) [2, 11]: 4250 ng·h/mL | Cmax [2, 11]: 505 ng/mL | half-life [2, 11]: 21.8 h | AUC(0-t) ([2]; male, human, oral, carmegliptin 150 mg + acute verapamil 80 mg t.i.d., day 10, geometric mean (CV%), read-out: AUC0–24): 2950 ng·h/mL | AUC(0-t) ([2]; male, human, oral, carmegliptin 150 mg + acute verapamil 80 mg t.i.d., day 10, geometric mean (CV%), read-out: AUClast): 3650 ng·h/mL | Vd/F [2, 11]: 1110 L | Tmax ([2]; male, human, oral, carmegliptin 150 mg + acute verapamil 80 mg t.i.d., day 10): 0.75 h | AUC(0-inf) [2, 12]: 4590 ng·h/mL | Cmax [2, 12]: 522 ng/mL | half-life [2, 12]: 14.4 h | AUC(0-t) ([2]; male, human, oral, carmegliptin 150 mg + chronic verapamil 80 mg t.i.d., day 15, geometric mean (CV%), read-out: AUC0–24): 3620 ng·h/mL | AUC(0-t) ([2]; male, human, oral, carmegliptin 150 mg + chronic verapamil 80 mg t.i.d., day 15, geometric mean (CV%), read-out: AUClast): 4280 ng·h/mL | Vd/F [2, 12]: 678 L | Tmax ([2]; male, human, oral, carmegliptin 150 mg + chronic verapamil 80 mg t.i.d., day 15): 1.5 h | inhibitor of P-glycoprotein (Pgp) (P-glycoprotein (Pgp)): not an inhibitor | uptake process (CHO cells): mainly passive diffusion | substrate of rodent mdr1a (mouse mdr1a): good substrate | cell permeability [4]: low cell permeability | uptake process [5]: mainly passive diffusion
SMILES: COc1cc2c(cc1OC)[C@@H]1C[C@H](N)[C@@H](N3C[C@@H](CF)CC3=O)CN1CC2 [Carmegliptin]
glucose tolerance [1]: improved glucose tolerance | subjects with prolonged PQ(PR) intervals (>200 ms) ([3]; after carmegliptin alone (day 1)): one | tolerability ([3]; combination of carmegliptin and verapamil): generally well tolerated | changes in vital signs, ECGs, or laboratory test variables attributed to treatment ([3]; healthy male volunteers): No changes | tolerability ([3]; healthy male volunteers, carmegliptin 150 mg): generally well tolerated

AUC(0-t) [6]: 203 ng·h/mL | Cmax [6]: 63.8 ng/mL | Tmax [6]: 1 h
SMILES: COc1ccc(CCNCCCC(C#N)(c2ccc(OC)c(OC)c2)C(C)C)cc1OC (stereo not shown) [Norverapamil]
effect on Pgp activity (Pgp): inhibitory effects on Pgp activity

Source: paper PMC4937633 (Journal of Drug Assessment, 2014)
